Assay results published in US6500858B2, “Taxoid anti-tumor agents and pharmaceutical compositions thereof” (The Research Foundation of the state University of New York, priority 1994, dated 2002).
“Also recorded” adds a separate entry of the source. Where two headings read alike, the source gives them in different places. Each block holds one compound with its values, some of them ahead of it.

Experiments:
HT-29 (colon carcinoma) = assay: tumor cell growth inhibition (SRB, 72 h drug exposure); assay type: cell-based, human; details: for IC50: 72 h drug exposure
Description: (§1) Lower numbers indicate higher potency. […] The data represent the mean values of at least three separate experiments. Lower numbers indicate greater activity.
(§2) Assessment of cell growth inhibition was determined according to the methods of Skehan et al., J. Nat. Cancer Inst. […] Briefly, cells were plated between 400 and 1200 cells/well in 96 well plates and incubated at 37° C. for 15-18 h prior to drug addition to allow attachment of cells. […] After a 72 h incubation, […] of ice-cold 50% TCA was added to each well and incubated for 1 h at 4° C. Plates were then washed 5 times with tap water to remove TCA, low-molecular-weight metabolites and serum proteins. Sulforhodamine B (SRB) (0.4%, […]) was added to each well. Following a 5 min incubation at room temperature, plates were rinsed 5 times with 0.1% acetic acid and air dried. […] Optical density was measured at 570 nm.

[1] = tested on: A549 (non-small cell lung carcinoma); assay: as above; assay type: cell-based, human; details: for IC50: 72 h drug exposure, read-out: A549 (NSCLC) IC50
Description: as §1, §2

MCF7 (mammary carcinoma) = assay: as above; assay type: cell-based, human; details: for IC50: 72 h drug exposure
Description: as §1, §2

A121 (ovarian carcinoma) = assay: as above; assay type: cell-based, human; details: for IC50: 72 h drug exposure
Description: as §1, §2

[2] = tested on: LCC6-MDR: MDR1 transduced line; assay: cytotoxicity assay of second generation taxoids; assay type: cell-based, human; details: for activity against drug-resistant vs drug-sensitive cell lines, in words: LCC6 and MCF7 pairs
[3] = tested on: LCC6-WT: human breast carcinoma; assay: cytotoxicity assay of second generation taxoids; assay type: cell-based; details: 72 h drug exposure, read-out: LCC6-WT IC50
Description: A cytotoxicity assay of these new second generation taxoids was performed on human breast cancer cell lines, LCC6-WT and LCC-MDR, and selected taxoids were also assayed for their potency against MCF7 and MCF7-R (Skehan, P., et al., J. Nat. Cancer Inst. 1990, 82, 1107-1112).

DU-145 = assay: growth inhibition by cell counts, 72 h; assay type: cell-based, human; details: Homo sapiens, DU-145, 72 h; read-out: DU-145 IC50
Description: (§3) Cells were plated in 6-well flat bottom plates (Falcon, Lincoln Park, N.J.) at a concentration of 10^5 cells ml in complete medium. After 24 h, the medium was replaced with media containing the test substances. Control cells were treated with vehicle alone. Cells were then washed twice and cultures maintained up to 72 h in complete medium (without removing the test substances). At this time point quadruplicate counts of triplicate cultures were performed. To calculate the growth inhibition effect, three independent experiments were performed for each test substance/cell line. The IC50 values were then calculated by fitting the concentration-effect curve data obtained in the three experiments with the sigmoid-Emax model using nonlinear regression, weighted by the reciprocal of the square of the predicted effect according to the method of Motulsky, H. J. and Ransnas, L. A., FASEB J. 1:365-74 (1987).

A2780 = assay: growth inhibition by cell counts, 72 h; assay type: cell-based, human; details: Homo sapiens, A2780, 72 h; read-out: A2780 IC50
Description: as §3

NCI-H23 = assay: growth inhibition by cell counts, 72 h; assay type: cell-based, human; details: Homo sapiens, NCI-H23, 72 h; read-out: NCI-H23 IC50
Description: as §3

WiDr = assay: growth inhibition by cell counts, 72 h; assay type: cell-based, human; details: Homo sapiens, WiDr, read-out: WiDr IC50
Description: as §3

MCF-7 ADRr = assay: growth inhibition by cell counts, 72 h; assay type: cell-based, human; details: Homo sapiens, MCF7, 72 h; read-out: MCF-7 ADRr IC50
Description: as §3

MCF-7 wt = assay: growth inhibition by cell counts, 72 h; assay type: cell-based, human; details: Homo sapiens, MCF7, 72 h; read-out: MCF-7 wt IC50
Description: as §3

[4] = tested on: MCF7-R (mammary carcinoma cells 180-fold resistant to adriamycin); assay: tumor cell growth inhibition (SRB, 72 h drug exposure); assay type: cell-based, human; details: for IC50: 72 h drug exposure
Description: as §1, §2

[5] = Table 1, read-out: MCF7 (breast) IC50

SMILES: CC(=O)O[C@@]12CO[C@@H]1C[C@H](O)[C@@]1(C)C(=O)[C@H](O)C3=C(C)[C@@H](OC(=O)[C@H](O)[C@H](CC(C)(C)C)NC(=O)OC(C)(C)C)C[C@@](O)([C@@H](OC(=O)c4ccccc4)[C@H]21)C3(C)C [3′-dephenyl-3′-neopentyldocetaxel]
cytotoxicity in words (HT-29 (colon carcinoma); HT-29 human colon): virtually not cytotoxic
cytotoxicity in words ([1]; A549 human non-small cell lung): virtually not cytotoxic
cytotoxicity in words (MCF7 (mammary carcinoma); MCF7 human breast): virtually not cytotoxic
cytotoxicity in words (A121 (ovarian carcinoma); A121 human ovarian): virtually not cytotoxic

IC50 (HT-29 (colon carcinoma); Homo sapiens, HT-29): 1.2 nM
IC50 ([1]; Homo sapiens, A549): 1 nM
IC50 (MCF7 (mammary carcinoma); Homo sapiens, MCF7, Table 1, read-out: MCF7 (breast) IC50): 1 nM
IC50 (MCF7 (mammary carcinoma); Homo sapiens, MCF7, Table 3, read-out: MCF7 IC50): 1 nM
IC50 (A121 (ovarian carcinoma); Homo sapiens, A121): 1.2 nM
IC50 (DU-145): 0.8 nM
IC50 (A2780): 4.95 nM
IC50 (NCI-H23): 3 nM
IC50 (MCF-7 ADRr): 970 nM
IC50 (MCF-7 wt): 3.6 nM
SMILES: CC(=O)O[C@@]12CO[C@@H]1C[C@H](O)[C@@]1(C)C(=O)[C@H](O)C3=C(C)[C@@H](OC(=O)[C@H](O)[C@@H](NC(=O)OC(C)(C)C)c4ccccc4)C[C@@](O)([C@@H](OC(=O)c4ccccc4)[C@H]21)C3(C)C [Docetaxel, docetaxel, reference compound]
IC50 ([2]; Homo sapiens, LCC6MDR, 72 h drug exposure, read-out: LCC6-MDR IC50): 120 nM
IC50 ([3]; Homo sapiens): 1 nM
IC50 (WiDr): 2.3 nM

IC50 ([4]; Table 3): 0.33 nM
IC50 (MCF7 (mammary carcinoma); Table 3, read-out: MCF7 IC50): 0.36 nM
SMILES: CCC(=O)OC1C(=O)C2(C)C(O)CC3OCC3(OC(C)=O)C2C(OC(=O)c2cccc(OC)c2)C2(O)CC(OC(=O)C(O)C(C=C(C)C)NC(=O)OC(C)(C)C)C(C)=C1C2(C)C (stereo not shown) [Taxoid 7f, 3′-Dephenyl-3′-(2-methylprop-1-enyl)-2-debenzoyl-2-(3-methoxybenzoyl)-10-propanoyldocetaxel]
activity against drug-resistant vs drug-sensitive cell lines, in words [2]: slightly better activity against the drug-resistant cell lines; also recorded: virtually no difference in activity
IC50 [3]: 1 nM

IC50 ([4]; Table 3): 2.3 nM
IC50 (MCF7 (mammary carcinoma); Table 3, read-out: MCF7 IC50): 0.8 nM
SMILES: COc1cccc(C(=O)OC2C3C4(OC(C)=O)COC4CC(O)C3(C)C(=O)C(OC(C)=O)C3=C(C)C(OC(=O)C(O)C(C=C(C)C)NC(=O)OC(C)(C)C)CC2(O)C3(C)C)c1 (stereo not shown) [Taxoid 7l, 3′-Dephenyl-3′-(2-methylprop-1-enyl)-2-debenzoyl-2-(3-methoxybenzoyl)-10-acetyldocetaxel]
IC50 [3]: 0.6 nM

IC50 ([4]; Table 3): 2.1 nM
IC50 (MCF7 (mammary carcinoma); Table 3, read-out: MCF7 IC50): 1 nM
SMILES: CCC(=O)OC1C(=O)C2(C)C(O)CC3OCC3(OC(C)=O)C2C(OC(=O)c2cccc(N=[N+]=[N-])c2)C2(O)CC(OC(=O)C(O)C(CC(C)C)NC(=O)OC(C)(C)C)C(C)=C1C2(C)C (stereo not shown) [Taxoid 7n, 3′-Dephenyl-3′-(2-methylpropyl)-2-debenzoyl-2-(3-azidobenzoyl)-10-propanoyldocetaxel]
IC50 [3]: 1.1 nM

IC50 ([4]; Table 3): 1.1 nM
IC50 (MCF7 (mammary carcinoma); Table 3, read-out: MCF7 IC50): 0.9 nM
SMILES: CCC(=O)OC1C(=O)C2(C)C(O)CC3OCC3(OC(C)=O)C2C(OC(=O)c2cccc(N=[N+]=[N-])c2)C2(O)CC(OC(=O)C(O)C(C=C(C)C)NC(=O)OC(C)(C)C)C(C)=C1C2(C)C (stereo not shown) [Taxoid 7o, 3′-Dephenyl-3′-(2-methylprop-1-enyl)-2-debenzoyl-2-(3-azidobenzoyl)-10-propanoyldocetaxel]
activity against drug-resistant vs drug-sensitive cell lines, in words [2]: virtually no difference in activity
IC50 [3]: 0.9 nM

IC50 ([4]; Table 3): 5 nM
IC50 (MCF7 (mammary carcinoma); Table 3, read-out: MCF7 IC50): 0.8 nM
SMILES: CC(=O)OC1C(=O)C2(C)C(O)CC3OCC3(OC(C)=O)C2C(OC(=O)c2cccc(C)c2)C2(O)CC(OC(=O)C(O)C(C=C(C)C)NC(=O)OC(C)(C)C)C(C)=C1C2(C)C (stereo not shown) [Taxoid 7q, 3′-Dephenyl-3′-(2-methylprop-1-enyl)-2-debenzoyl-2-(3-methylbenzoyl)-10-acetyldocetaxel]
IC50 [3]: 1.5 nM

IC50 ([4]; Table 1): 14 nM
IC50 (HT-29 (colon carcinoma)): 0.76 nM
IC50 [1]: 0.54 nM
IC50 (MCF7 (mammary carcinoma); [5]): 0.51 nM
IC50 (A121 (ovarian carcinoma)): 0.9 nM
SMILES: CC=CC(NC(=O)OC(C)(C)C)C(O)C(=O)OC1CC2(O)C(OC(=O)c3ccccc3)C3C4(OC(C)=O)COC4CC(O)C3(C)C(=O)C(OC(C)=O)C(=C1C)C2(C)C (stereo not shown) [Taxoid Ia, 3′-dephenyl-3′-(1-propenyl)-10-acetyldocetaxel]
times better activity than docetaxel ([4]; MCF7-R): 17 times
times better activity than paclitaxel ([4]; MCF7-R): 21 times

IC50 ([4]; Table 1): 17 nM
IC50 (HT-29 (colon carcinoma)): 0.4 nM
IC50 [1]: 0.25 nM
IC50 (MCF7 (mammary carcinoma); [5]): 0.25 nM
IC50 (A121 (ovarian carcinoma)): 0.37 nM
SMILES: CC(=O)OC1C(=O)C2(C)C(O)CC3OCC3(OC(C)=O)C2C(OC(=O)c2ccccc2)C2(O)CC(OC(=O)C(O)C(NC(=O)OC(C)(C)C)C(F)(F)F)C(C)=C1C2(C)C (stereo not shown) [Taxoid Ig, 3′-Dephenyl-3 ′-trifluoromethyl-10-acetyldocetaxel]
